Experimental data taken from ChEMBL document CHEMBL3616401, “Thiophene-expanded guanosine analogues of Gemcitabine” (2015).

Experiments:
Format in all cases: functional
[1] = test system: T47D; test: Growth inhibition of human T47D cells assessed as cell growth at 15 ug/ml; settings: read-out: Activity
[2] = Growth inhibition of human MOLT4 cells assessed as cell growth at 15 ug/ml; settings: MOLT-4, read-out: Activity
[3] = test system: NCI-H522; test: Growth inhibition of human NCI-H522 cells assessed as cell growth at 15 ug/ml; settings: read-out: Activity
[4] = Growth inhibition of human LOXIMVI cells assessed as cell growth at 15 ug/ml; settings: LOX IMVI, read-out: Activity

| Compound | growth at 15 µg/mL [1] [%] | growth at 15 µg/mL [2] [%] | growth at 15 µg/mL [3] [%] | growth at 15 µg/mL [4] [%] |
| --- | --- | --- | --- | --- |
| CC(C)OC(=O)[C@H](C)NP(=O)(OC[C@H]1O[C@@H](n2cnc3sc4c(=O)[nH]c(N)nc4c32)C(F)(F)[C@@H]1OP(=O)(N[C@@H](C)C(=O)OC(C)C)Oc1ccccc1)Oc1ccccc1 (some centres not stated) | 87.2 | 109 | 77.7 | 102 |
| Nc1nc2c(sc3ncn([C@@H]4O[C@H](CO)[C@@H](O)C4(F)F)c32)c(=O)[nH]1 | 10.5 | 13.9 | 34 | 25.6 |
| CC(C)OC(=O)[C@H](C)NP(=O)(OC[C@H]1O[C@@H](n2cnc3sc4c(=O)[nH]c(N)nc4c32)C(F)(F)[C@@H]1O)Oc1ccccc1 (some centres not stated) | 64.5 | 94 | 65.6 | 74.1 |
